Structures can show the parent of a compound that is named as a salt. Positions of bridges follow the written chain, without caps; N, C: chain ends. Non-standard residues stand in square brackets, D forms with d. Residues, ends and D or L forms follow the SMILES beside them. *: point of attachment. X3 = CC[C@H](C)CCCCC(=O)*; Dab = NCC[C@H](N)C(=O)O
Experiment: in vitro
Settings: rat, gh3-tre-luc cells, AC50 (uM) modified / 1000

SMILES	CC50 at 24 h
CC[C@H](C)CCCCC(=O)N[C@@H](CCN)C(=O)N[C@H](C(=O)N[C@@H](CCN)C(=O)N[C@H]1CCNC(=O)[C@H]([C@@H](C)O)NC(=O)[C@H](CCN)NC(=O)[C@H](CCN)NC(=O)[C@H](CC(C)C)NC(=O)[C@@H](CC(C)C)NC(=O)[C@H](CCN)NC1=O)[C@@H](C)O [Colistin A] (X3-[Dab]T[Dab][Dab][Dab][dL]L[Dab][Dab]T; lactam 4-C)	> 50 µM
O=C1Nc2ccc(Cl)cc2C(c2ccccc2)=NC1O (stereo not drawn) [Oxazepam]	> 80 µM
CO[Si](C)(OC)OC [Trimethoxymethylsilane]	> 90 µM
COCC(=O)Nc1c(I)c(C(=O)NCC(O)CO)c(I)c(C(=O)N(C)CC(O)CO)c1I (mixture of isomers) [Iopromide]	> 20 µM
CC(=O)c1ccc2ccccc2c1 [2'-Acetonaphthone]	> 90 µM
Cc1cc(CCN2CCN(c3nsc4ccccc34)CC2)cc2c1NC(=O)CC2(C)C [PD 0343701]	46.9 µM
CC(C)O [Isopropanol]	> 100 µM
Cc1nn(-c2cc(NS(C)(=O)=O)c(Cl)cc2Cl)c(=O)n1C(F)F [Sulfentrazone]	> 90 µM
COc1cc(C[C@@H]2NCCc3cc(O)c(O)cc32)cc(OC)c1OC [Trimethoquinol]	> 50 µM
NC[C@H]1O[C@H](O[C@H]2[C@H](O)[C@@H](O[C@H]3O[C@H](CO)[C@@H](O)[C@H](N)[C@H]3O)[C@H](N)C[C@@H]2N)[C@H](N)[C@@H](O)[C@@H]1O [Bekanamycin sulfate]	> 50 µM
CN[C@@H]1[C@H](O[C@H]2[C@H](O[C@H]3[C@H](O)[C@@H](O)[C@H](NC(=N)N)[C@@H](O)[C@@H]3NC(=N)N)O[C@@H](C)[C@]2(O)CO)O[C@@H](CO)[C@H](O)[C@H]1O [Dihydrostreptomycin sulfate]	> 50 µM
COc1ccc(-n2nc(C(F)F)cc2-c2ccc([S+](C)[O-])cc2)cc1 (stereo not drawn) [Difpas-pyrazole]	> 90 µM
C=C(C)C(=O)OC1CC(C)CC(C)(C)C1 (stereo not drawn) [3,3,5-Trimethylcyclohexyl 2-methylprop-2-enoate]	> 90 µM
COc1cc(C(=O)NCc2ccc(OCCN(C)C)cc2)cc(OC)c1OC [Trimethobenzamide hydrochloride]	> 20 µM
CCc1ccc(CCOc2ccc(CC3SC(=O)NC3=O)cc2)nc1 (stereo not drawn) [Pioglitazone hydrochloride]	> 90 µM
CC(=O)Nc1c(I)c(C(=O)O)c(I)c(N(C)C(C)=O)c1I [Metrizoate sodium]	> 50 µM
CNC(=O)[C@H]1O[C@@H](n2cnc3c(NCc4cc(Cl)ccc4OCc4cc(C)no4)ncnc32)[C@H](O)[C@@H]1N [CP-608039]	> 90 µM
C=CC(C)(CCC=C(C)C)OC(C)=O (stereo not drawn) [Linalyl acetate]	> 90 µM
COc1ccccc1N1CCN(CCCNc2cc(=O)n(C)c(=O)n2C)CC1 [Urapidil]	> 50 µM
CCOCCn1c(N2CCCN(C)CC2)nc2ccccc21 [Emedastine difumarate]	> 50 µM
c1ccc2c(c1)Sc1ccccc1N2C[C@@H]1CN2CCC1CC2 [Levomequitazine]	> 50 µM
Nc1ncn([C@H]2C[C@H](O)[C@@H](CO)O2)c(=O)n1 [Decitabine]	> 50 µM
CN(C)c1ccc(C(=C2C=CC(=[N+](C)C)C=C2)c2c(O)c(S(=O)(=O)[O-])cc3cc(S(=O)(=O)O)ccc23)cc1 [Acid green 50]	30.6 µM
CCOC(=O)[C@H](CCc1ccccc1)N[C@@H](C)C(=O)N1Cc2cc(OC)c(OC)cc2C[C@H]1C(=O)O [Moexipril hydrochloride]	> 50 µM
CC(=O)C1=C(C)[C@@H]2C[C@@]3(C1)[C@H](C)CC[C@H]3C2(C)C [Acetyl cedrene]	56.9 µM
CCCCCCCCCCCCCCCCCC[N+](C)(C)C [N,N,N-Trimethyloctadecan-1-aminium chloride]	13.4 µM

SMILES	CC50 at 24 h
c1cc(OCC2CO2)cc(OCC2CO2)c1 (stereo not drawn) [Diglycidyl resorcinol ether]	17.3 µM
O=C1OC(CN2CCOCC2)CN1/N=C/c1ccc([N+](=O)[O-])o1 (stereo not drawn) [Furaltadone hydrochloride]	> 20 µM
CC(C)C(O)(c1ccc(OC(F)(F)F)cc1)c1cncnc1 (stereo not drawn) [Flurprimidol]	> 90 µM
N#CCCSCCC#N [3,3'-Thiodipropionitrile]	> 90 µM
CC(C(=O)O)c1cccc(C(=O)c2ccccc2)c1 (stereo not drawn) [Ketoprofen]	> 90 µM
CCOC(=O)CCC(C)=O [Ethyl levulinate]	> 90 µM
Cc1nnc2n1-c1sc(Br)cc1C(c1ccccc1Cl)=NC2 [Brotizolam]	32.6 µM
CNC(=N)NCCC[C@H](N)C(=O)O [Tilarginine acetate]	> 50 µM
COc1ccc(C(=O)NCc2ccc(OCCN(C)C)cc2)cc1OC [Itopride hydrochloride]	> 50 µM
O=C1CCCCCO1 [Caprolactone]	> 90 µM
CC(C)(C)NCCO [2-(tert-Butylamino)ethanol]	> 90 µM
NC(=O)[C@@H]1CCCN1C(=O)[C@H](Cc1cnc[nH]1)NC(=O)[C@@H]1CCC(=O)N1 [Protirelin]	> 50 µM
ClCC=CCCl [1,4-Dichloro-2-butene]	> 90 µM
FC(F)C(F)(F)OCC(Cn1cncn1)c1ccc(Cl)cc1Cl (stereo not drawn) [Tetraconazole]	> 90 µM
C=CCOc1ccc(CC(=O)O)cc1Cl [Alclofenac]	> 50 µM
C1=C\CC/C=C\CC/1 [1,5-Cyclooctadiene]	> 100 µM
CCN(CC)c1ccc(C(=C2C=CC(=[N+](CC)CC)C=C2)c2ccc(S(=O)(=O)O)cc2S(=O)(=O)[O-])cc1 [Sulfan blue]	> 90 µM
Cc1ccc(C)c(N)c1 [2,5-Dimethylaniline]	> 90 µM
CN1[C@@H](CC(=O)c2ccccc2)CCC[C@H]1C[C@H](O)c1ccccc1 [Lobeline]	> 50 µM
CCCCCCC(C)Nc1ccc(Nc2ccccc2)cc1 (stereo not drawn) [N-(1-Methylheptyl)-N'-phenyl-1,4-benzenediamine]	35.9 µM
Cc1nnc(SCC2=C(C(=O)O)N3C(=O)[C@@H](NC(=O)Cn4cnnn4)[C@H]3SC2)s1 [Cefazolin]	> 50 µM
CCC(NC(C)C)C(O)c1ccc(O)c(O)c1 (stereo not drawn) [Isoetharine mesylate]	> 50 µM
CCCCCCC(C)(C)C(=O)O [Calcium neodecanoate]	> 90 µM
CCC[Si](OC)(OC)OC [Trimethoxypropylsilane]	> 90 µM
CCN(CC)CCC(=O)N1c2ccccc2Sc2ccc(Cl)cc21 [Chloracizine]	23.2 µM

Same assay, conditions: rat, gh3-tre-luc cells, AC50 (uM) modified / 1000, Tox21_110001=Tox21_111806; viability, 1 nM T3 present, 24 h

SMILES	CC50 at 24 h
C[C@@H](Cc1ccccc1)NCc1ccccc1Cl [Clobenzorex hydrochloride]	> 50 µM

Same assay, conditions: rat, gh3-tre-luc cells, AC50 (uM) modified / 1000, Tox21_110001=Tox21_112025; viability, 1 nM T3 present, 24 h

SMILES	CC50 at 24 h
C=CC[N+]1(C)CC[C@]23c4c5ccc(O)c4O[C@H]2C(=O)CC[C@@]3(O)[C@H]1C5 (stereo partly drawn) [Naloxone methyliodide]	> 50 µM

Same assay, conditions: rat, gh3-tre-luc cells, AC50 (uM) modified / 1000, Tox21_110001=Tox21_112831; viability, 1 nM T3 present, 24 h

SMILES	CC50 at 24 h
CC[C@H](OC(C)=O)C(C[C@H](C)NC)(c1ccccc1)c1ccccc1 [L-alpha-Acetyl-N-normethadol hydrochloride]	17.4 µM

Same assay, conditions: rat, gh3-tre-luc cells, AC50 (uM) modified / 1000, Tox21_110001=Tox21_200105; viability, 1 nM T3 present, 24 h

SMILES	CC50 at 24 h
Oc1cc(Cl)c(Cl)c(Cl)c1Cl [2,3,4,5-Tetrachlorophenol]	29.2 µM

Same assay, conditions: rat, gh3-tre-luc cells, AC50 (uM) modified / 1000, Tox21_110001=Tox21_200522; viability, 1 nM T3 present, 24 h

SMILES	CC50 at 24 h
O=C1CCCCC1Cl (stereo not drawn) [2-Chlorocyclohexanone]	> 90 µM

Same assay, conditions: rat, gh3-tre-luc cells, AC50 (uM) modified / 1000, Tox21_110001=Tox21_200633; viability, 1 nM T3 present, 24 h

SMILES	CC50 at 24 h
CCC(C)Br (stereo not drawn) [2-Bromobutane]	> 100 µM

Same assay, conditions: rat, gh3-tre-luc cells, AC50 (uM) modified / 1000, Tox21_110001=Tox21_200953; viability, 1 nM T3 present, 24 h

SMILES	CC50 at 24 h
O=[N+]([O-])c1cccc2c([N+](=O)[O-])cccc12 [1,5-Dinitronaphthalene]	> 90 µM

Same assay, conditions: rat, gh3-tre-luc cells, AC50 (uM) modified / 1000, Tox21_110001=Tox21_201731; viability, 1 nM T3 present, 24 h

SMILES	CC50 at 24 h
CNC(=O)O/N=C(\SC)C(=O)N(C)C [Oxamyl]	> 100 µM

Same assay, conditions: rat, gh3-tre-luc cells, AC50 (uM) modified / 1000, Tox21_110001=Tox21_301156; viability, 1 nM T3 present, 24 h

SMILES	CC50 at 24 h
CNC(=O)O/N=C(\SC)C(=O)N(C)C [Oxamyl]	> 90 µM

From paper PMC6792352, “Limited Chemical Structural Diversity Found to Modulate Thyroid Hormone Receptor in the Tox21 Chemical Library” (Environmental Health Perspectives, 2019)
